Measured values taken from patent US6576780B1, “Hydroxyamidino derivatives useful as nitric oxide synthase inhibitors” (GD Searle & Company, priority 1996, dated 2003).
Counter-ions that a name gives are not always drawn.

What was measured:
[1] = biological target: T1, mouse inducible NOS (miNOS) (Mus musculus, UniProt P29477); assay: Citrulline assay for nitric oxide synthase, miNOS; assay type: biochemical; details: partially purified enzyme from LPS-treated RAW 264.7 cells
T1 construct: prepared from an extract of LPS-treated mouse RAW 264.7 cells; endogenous in cells; host or cells: LPS-treated mouse RAW 264.7 cells
Method: (§1) NOS activity was measured by monitoring the conversion of L-[2,3-^3H]-arginine to L-[2,3- H]-citrulline. Mouse inducible NOS (miNOS) was prepared from an extract of LPS-treated mouse RAW 264.7 cells and rat brain constitutive NOS (rnNOS) was prepared from an extract of rat cerebellum. Both preparations were partially purified by DEAE-Sepharose chromatography. Enzyme (10 μL) was added to 40 μL of 50 mM Tris (pH 7.6) and the reaction initiated by the addition of 50 μL of a solution containing 50 mM Tris (pH 7.6), 2.0 mg/mL bovine serum albumin, 2.0 mM DTT, 4.0 mM CaCl2, 20 μM FAD, 100 &M tetrahydrobiopterin, 2.0 mM NADPH and 60 μM L-arginine containing 0.9 μCi of L-[2,3-^3H]-arginine. For constitutive NOS, calmodulin was included at a final concentration of 40 nM. Following incubation at 37° C. for 15 minutes, the reaction was terminated by addition of 300 μL cold buffer containing 10 mM EGTA, 100 mM HEPES (pH 5.5) and 1.0 mM L-citrulline. The [^3H]-citrulline was separated by chromatography on Dowex 50W X-8 cation exchange resin and radioactivity quantified with a liquid scintillation counter.

[2] = biological target: recombinant human neuronal constitutive NOS (hncNOS) (Homo sapiens, UniProt P29475); assay: Human in vitro enzyme data, hncNOS; assay type: biochemical
[3] = test system: plasma nitrites induced by endotoxin (LPS); assay: In vivo low-endotoxin (Low Dose LPS) assay; set-up: species or system rat; details: rats, LPS i.p., plasma nitrites 5 hours post-treatment
Method: Rats were treated with an intraperitoneal injection of 10 mg/kg of endotoxin (LPS) with or without oral administration of the nitric oxide synthase inhibitors. Plasma nitrites were measured 5 hours post-treatment.

[4] = biological target: recombinant human inducible NOS (hiNOS) (Homo sapiens, UniProt P35228); assay: Human in vitro enzyme data, hiNOS; assay type: biochemical
[5] = biological target: T2, rat brain constitutive NOS (rnNOS) (Rattus norvegicus, UniProt P29476); assay: Citrulline assay for nitric oxide synthase, rnNOS; assay type: biochemical; details: partially purified enzyme from rat cerebellum
T2 construct: was prepared from an extract of rat cerebellum; from tissue; host or cells: rat cerebellum
Method: as §1

[6] = test system: RAW 264.7 cells; assay: Raw cell nitrite assay; assay type: cell-based; details: Mus musculus, RAW264.7, cultured RAW 264.7 cells, LPS-induced
Method: RAW 264.7 cells are plated to confluency on a 96-well tissue culture plate grown overnight (17 h) in the presence of LPS to induce NOS. A row of 3-6 wells were left untreated and served as controls for subtraction of nonspecific background. The media was removed from each well and the cells are washed twice with Kreb-Ringers-Hepes (25 mM, pH 7.4) with 2 mg/ml glucose. The cells are then placed on ice and incubated with […] of buffer containing L-arginine (30 mM) +/− inhibitors for 1 h. The assay is initiated by warming the plate to 37° C. in a water bath for 1 h. Production of nitrite by intracellular iNOS is linear with time. To terminate the cellular assay, the plate of cells is placed on ice and the nitrite-containing buffer removed and analyzed for nitrite using a previously published fluorescent determination for nitrite. T. P. Misko et al, Analytical Biochemistry, 214, 11-16 (1993). All values are the average of triplicate wells and are compared to a background-subtracted induced set of cells (100% value).

[7] = biological target: recombinant human endothelial constitutive NOS (hecNOS) (Homo sapiens, UniProt P29474); assay: Human in vitro enzyme data, hecNOS; assay type: biochemical

For C/C(=N\O)NCCCC[C@H](N)C(=O)O [Example 1, N^6-[1-(Hydroxyimino)ethyl]-L-lysine, Dihydrochloride], the IC50 [1] was 77 µM, the IC50 [2] was 907 µM and the “Inhibition of LPS-induced plasma nitrite” value ([3]; 0.1 mg/kg/day p.o.) was 0% inh. For the same compound, the “Inhibition of LPS-induced plasma nitrite” value ([3]; 1 mg/kg/day p.o.) was 54% inh, the “Inhibition of LPS-induced plasma nitrite” value ([3]; 10 mg/kg/day p.o.) was 97% inh and the IC50 [4] was 154 µM. It also gave an IC50 [5] of 1470 µM, an IC50 [6] of 28 µM and an IC50 [7] of 1470 µM.
